Reference: patent publication US7972828B2, “Stabilized compositions of thermostable DNA polymerase and anionic or zwitterionic detergent” (Sigma-Aldrich Co., priority 2006, dated 2011)

Assays:
Format in all cases: biochemical
Taq DNA polymerase [1] = target: T1, Taq DNA polymerase (Thermus aquaticus, UniProt P19821); assay: PCR detergent screening for ability to stabilize Taq DNA polymerase; settings: for Detergent supported PCR in screening reactions: detergent tested at 5%, 0.5%, 0.05%, 0.005% or 0.0005%
T1 construct: purchased Sigma Aldrich, St. Louis, Mo
T1 sequence (P19821 whole entry): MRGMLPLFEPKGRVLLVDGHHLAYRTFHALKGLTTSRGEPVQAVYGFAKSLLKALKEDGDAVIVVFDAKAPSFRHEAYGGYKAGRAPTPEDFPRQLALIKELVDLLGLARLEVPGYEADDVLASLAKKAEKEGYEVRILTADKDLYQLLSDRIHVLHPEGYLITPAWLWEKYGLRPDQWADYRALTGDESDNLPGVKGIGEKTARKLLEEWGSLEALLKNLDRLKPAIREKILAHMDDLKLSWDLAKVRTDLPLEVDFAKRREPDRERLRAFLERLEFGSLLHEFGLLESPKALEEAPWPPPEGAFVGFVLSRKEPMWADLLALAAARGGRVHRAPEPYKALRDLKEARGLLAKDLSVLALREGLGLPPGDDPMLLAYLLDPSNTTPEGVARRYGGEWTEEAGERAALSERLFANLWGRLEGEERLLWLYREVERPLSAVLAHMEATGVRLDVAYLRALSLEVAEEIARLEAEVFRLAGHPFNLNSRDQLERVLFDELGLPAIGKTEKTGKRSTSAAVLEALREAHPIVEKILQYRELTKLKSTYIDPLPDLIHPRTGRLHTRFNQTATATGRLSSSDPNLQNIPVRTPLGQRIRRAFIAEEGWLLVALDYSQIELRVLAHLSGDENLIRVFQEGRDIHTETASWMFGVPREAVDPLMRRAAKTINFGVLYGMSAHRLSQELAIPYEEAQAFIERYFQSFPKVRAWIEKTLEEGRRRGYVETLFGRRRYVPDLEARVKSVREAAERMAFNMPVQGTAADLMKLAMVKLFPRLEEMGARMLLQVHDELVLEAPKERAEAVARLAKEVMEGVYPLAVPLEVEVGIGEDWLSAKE
Experimental: A PCR assay was used to screen 47 of the potential candidate detergents for their ability to stabilize Taq DNA polymerase. The final concentration of each detergent tested was 5%, 0.5%, 0.05%, 0.005%, or 0.0005%. A forward primer (5′-[…]-3′; SEQ ID No:1) and a reverse primer (5′-[…]-3′; SEQ ID No:2) were designed to amplify a 500 bp fragment of lambda DNA. Each 10 μl reaction contained:
1 μl 10 μM Forward Primer
1 μl 10 μM Reverse Primer
0.1 μl 5 Units/μl Taq DNA polymerase
The cycling parameters were 94° C. for 15 min and 30 cycles of 94° C. for 30 sec and 70° C. for 30 sec, and a 4° C. hold. For each series of detergents tested, positive control reactions comprising 0.0005% Tween 20 were included, as well as negative control reactions without any detergent. An aliquot of each reaction was resolved by agarose gel electrophoresis.

Taq DNA polymerase [2] = target: T1, Taq DNA polymerase; assay: Long-term stability of Taq formulations with DTT, assessed by PCR; settings: stored at 25° C. 6 to 40 days, higher concentration of DTT (0.2 mM)
Experimental: The long-term stability of Taq formulated with either Tween 20, an anionic detergent, or a zwitterionic detergent was compared in the presence of two concentrations of DTT. Taq was formulated with 0.01% or 0.1% Tween 20, 0.1% or 1% poly(ethylene glycol) 4-nonylphenyl 3 sulfopropyl ether potassium salt, or 1% CHAPS. Each formulation was stored in the presence of 0.02 mM DTT or 0.2 mM DTT at 25° C. for periods of time ranging from 6 days to 40 days. The calculated corresponding periods for storage at −20° C. ranged from about 1.5 years to about 10 years (see FIG. 2). The ability of various formulations of Taq to support PCR was assessed using a PCR assay similar to that described in Example 1. The same primers and reactions conditions were used.
An aliquot of each reaction was resolved by agarose gel electrophoresis.

Taq DNA polymerase [3] = target: T1, Taq DNA polymerase; assay: SYBR Green quantitative real-time PCR amplification efficiency on human genomic DNA; set-up: key to Reaction Efficiencies CD14F: *: No amplification product; key to Ct 14-3-3 / Ct CD14F / Ct HoxA2: cycle at which fluorescence exceeds a defined threshold; settings: for Efficiency (dilutional efficiency) 14-3-3 / Efficiency (dilutional efficiency) CD14F / Efficiency (dilutional efficiency) HoxA2 / Efficiency (dilutional efficiency) PGK1: slope of serially diluted template plots
Description: The efficiency of amplification by Taq DNA polymerase in the presence of Tween 20 or the anionic detergent, poly (ethylene glycol) 4-nonylphenyl 3 sulfopropyl ether potassium salt, was compared using SYBR Green quantitative real-time PCR (qPCR) to amplify four different fragments in Msel-digested or intact human genomic DNA. Each reaction comprised 1× Jumpstart Taq Ready mix (Sigma Aldrich, St. Louis, Mo.) formulated with Tween 20 or poly (ethylene glycol) 4-nonylphenyl 3 sulfopropyl ether potassium salt, 1×ROX (reference dye), 0.8×SYBR green, 0.4 μM primers. The template was serially diluted such that reactions contained 25 ng, 2.5 ng, or 0.25 ng of intact DNA or 400 ng, 40 ng, of 4 ng of digested DNA. The cycling profile was 95° C. for 3 min, 35 cycles of 95° C. for 30 sec, 55° C. for 60 sec, and 72° C. for 120 sec.
Table 2 presents the Ct values (which is the cycle that the fluorescence exceeds a defined threshold value) for each amplified product using the different templates. The ‘no template’ control reactions (for every primer pair) produced no amplicons.
The efficiency of amplification was derived from the slopes of the serially diluted template amplification plots (dilutional efficiency), and the percent efficiency is also presented in Table 2.
Individual reaction efficiencies were calculated in an effort to explore the nature of the dilutional efficiency effects. […] That is, reactions with lower amounts of template were less efficiently primed or initiated in the presence of Tween 20 than in the presence of the anionic surfactant. Once the amplification process began, however, the reaction efficiencies were detergent independent.

Taq DNA polymerase [4] = target: T1, Taq DNA polymerase; assay: Specificity of PCR amplification (BsrGIO, SacIO fragments) on agarose gel; settings: 352 bp and 360 bp fragments, HEK293 genomic DNA
Experimental: To determine whether amplification in the presence of the anionic detergent, poly (ethylene glycol) 4-nonylphenyl 3-sulfopropyl ether potassium salt, produced less non-specific products, formulations comprising Tween 20 were compared to an anionic detergent formulation. Primers (see Table 4) were designed to amplify a 352 by fragment (BsrGIO) and a 360 by fragment (SacIO) in human genomic DNA. The reactions (50 μl) contained […] HEK293 genomic DNA, […], 1×PCR Buffer, 0.2 mM dNTPs, 0.05 U/μL Taq, and 4% DMSO. Thermocycling parameters were 94° C. for 2 min, 30 cycles of 94° C. for 20 sec, 58° C. for 30 sec, and 72° C. for 80 sec, a final extension at 72° C. for 10 min, and a 4° C. hold.
Aliquots of each sample were run on an agarose gel (FIG. 3). […] This finding raises the possibility that there may be a multimolecular complex comprising template, primer, detergent, and enzyme, and it is possible that the anionic detergent increased the coulombic repulsion between template/primers and the […].

C[C@H](CCC(=O)NCCC[N+](C)(C)CCCS(=O)(=O)[O-])[C@H]1CC[C@H]2[C@@H]3[C@H](O)C[C@@H]4C[C@H](O)CC[C@]4(C)[C@@]3(C)C[C@H](O)[C@]12C [CHAPS, 3-[(3-cholamidopropyl)dimethylammonio]-1-propanesulfonate]
Detergent supported PCR in screening reactions (Taq DNA polymerase [1]): supported PCR | Ability of stored Taq formulation to support PCR (Taq DNA polymerase [2]): substantially able to support PCR

C[C@H](CCC(=O)NCCC[N+](C)(C)CC(O)CS(=O)(=O)[O-])[C@H]1CC[C@H]2[C@@H]3[C@H](O)C[C@@H]4C[C@H](O)CC[C@]4(C)[C@H]3C[C@H](O)[C@]12C (stereo partly shown) [CHAPSO, 3-[(3-cholamidopropyl)dimethylammonio]-2-hydroxy-1-propanesulfonate]
Detergent supported PCR in screening reactions (Taq DNA polymerase [1]): supported PCR

nonyl nonoxynol-15 phosphate [Rhodafac RM710]
Detergent supported PCR in screening reactions (Taq DNA polymerase [1]): supported PCR | Amplified products (500 bp lambda DNA fragment) on agarose gel (Taq DNA polymerase [1]; low concentration of the detergent): Amplified products were present

poly (ethylene glycol) 4-nonylphenyl 3-sulfopropyl ether potassium salt [Anionic]
Ct 14-3-3 (Taq DNA polymerase [3]; Intact DNA, 0.25 ng): 30.8 | Ct CD14F (Taq DNA polymerase [3]; Intact DNA, 0.25 ng): No Ct | Ct HoxA2 (Taq DNA polymerase [3]; Intact DNA, 0.25 ng): 30.41 | Ct PGK1 (Taq DNA polymerase [3]; Intact DNA, 0.25 ng): 31.59 | Ct 14-3-3 (Taq DNA polymerase [3]; Intact DNA, 2.5 ng): 27.88 | Ct CD14F (Taq DNA polymerase [3]; Intact DNA, 2.5 ng): 33.98 | Ct HoxA2 (Taq DNA polymerase [3]; Intact DNA, 2.5 ng): 26.92 | Ct PGK1 (Taq DNA polymerase [3]; Intact DNA, 2.5 ng): 28.33 | Ct 14-3-3 (Taq DNA polymerase [3]; Intact DNA, 25 ng): 24.31 | Ct CD14F (Taq DNA polymerase [3]; Intact DNA, 25 ng): 28.72 | Ct HoxA2 (Taq DNA polymerase [3]; Intact DNA, 25 ng): 23.33 | Ct PGK1 (Taq DNA polymerase [3]; Intact DNA, 25 ng): 23.62 | Reaction Efficiencies 14-3-3 (Taq DNA polymerase [3]; Intact DNA, 0.25): 98% | Reaction Efficiencies CD14F (Taq DNA polymerase [3]; Intact DNA, 0.25): * | Reaction Efficiencies HoxA2 (Taq DNA polymerase [3]; Intact DNA, 0.25): 102% | Reaction Efficiencies PGK1 (Taq DNA polymerase [3]; Intact DNA, 0.25): 97% | Reaction Efficiencies 14-3-3 (Taq DNA polymerase [3]; Intact DNA, 2.5): 115% | Reaction Efficiencies CD14F (Taq DNA polymerase [3]; Intact DNA, 2.5): 124% | Reaction Efficiencies HoxA2 (Taq DNA polymerase [3]; Intact DNA, 2.5): 102% | Reaction Efficiencies PGK1 (Taq DNA polymerase [3]; Intact DNA, 2.5): 101% | Reaction Efficiencies 14-3-3 (Taq DNA polymerase [3]; Intact DNA, 25): 102% | Reaction Efficiencies CD14F (Taq DNA polymerase [3]; Intact DNA, 25): 99% | Reaction Efficiencies HoxA2 (Taq DNA polymerase [3]; Intact DNA, 25): 104% | Reaction Efficiencies PGK1 (Taq DNA polymerase [3]; Intact DNA, 25): 98% | Efficiency (dilutional efficiency) 14-3-3 (Taq DNA polymerase [3]; Intact DNA): 105% | Efficiency (dilutional efficiency) CD14F (Taq DNA polymerase [3]; Intact DNA): 26% | Efficiency (dilutional efficiency) HoxA2 (Taq DNA polymerase [3]; Intact DNA): 86% | Efficiency (dilutional efficiency) PGK1 (Taq DNA polymerase [3]; Intact DNA): 63% | Ct 14-3-3 (Taq DNA polymerase [3]; Mse-I digested DNA, 4 ng): 28.65 | Ct CD14F (Taq DNA polymerase [3]; Mse-I digested DNA, 4 ng): No Ct | Ct HoxA2 (Taq DNA polymerase [3]; Mse-I digested DNA, 4 ng): 29.96 | Ct PGK1 (Taq DNA polymerase [3]; Mse-I digested DNA, 4 ng): 31.38 | Ct 14-3-3 (Taq DNA polymerase [3]; Mse-I digested DNA, 40 ng): 24.86 | Ct CD14F (Taq DNA polymerase [3]; Mse-I digested DNA, 40 ng): 34.72 | Ct HoxA2 (Taq DNA polymerase [3]; Mse-I digested DNA, 40 ng): 26.47 | Ct PGK1 (Taq DNA polymerase [3]; Mse-I digested DNA, 40 ng): 27.95 | Ct 14-3-3 (Taq DNA polymerase [3]; Mse-I digested DNA, 400 ng): 21.17 | Ct CD14F (Taq DNA polymerase [3]; Mse-I digested DNA, 400 ng): 30.15 | Ct HoxA2 (Taq DNA polymerase [3]; Mse-I digested DNA, 400 ng): 22.27 | Ct PGK1 (Taq DNA polymerase [3]; Mse-I digested DNA, 400 ng): 23.17 | Efficiency (dilutional efficiency) 14-3-3 (Taq DNA polymerase [3]; Mse-I digested DNA): 75% | Efficiency (dilutional efficiency) CD14F (Taq DNA polymerase [3]; Mse-I digested DNA): 42% | Efficiency (dilutional efficiency) HoxA2 (Taq DNA polymerase [3]; Mse-I digested DNA): 69% | Efficiency (dilutional efficiency) PGK1 (Taq DNA polymerase [3]; Mse-I digested DNA): 58% | Reaction Efficiencies 14-3-3 (Taq DNA polymerase [3]; MseI digested DNA, 4 ng): 103% | Reaction Efficiencies CD14F (Taq DNA polymerase [3]; MseI digested DNA, 4 ng): * | Reaction Efficiencies HoxA2 (Taq DNA polymerase [3]; MseI digested DNA, 4 ng): 99% | Reaction Efficiencies PGK1 (Taq DNA polymerase [3]; MseI digested DNA, 4 ng): 97% | Reaction Efficiencies 14-3-3 (Taq DNA polymerase [3]; MseI digested DNA, 40 ng): 107% | Reaction Efficiencies CD14F (Taq DNA polymerase [3]; MseI digested DNA, 40 ng): 92% | Reaction Efficiencies HoxA2 (Taq DNA polymerase [3]; MseI digested DNA, 40 ng): 101% | Reaction Efficiencies PGK1 (Taq DNA polymerase [3]; MseI digested DNA, 40 ng): 102% | Reaction Efficiencies 14-3-3 (Taq DNA polymerase [3]; MseI digested DNA, 400 ng): 101% | Reaction Efficiencies CD14F (Taq DNA polymerase [3]; MseI digested DNA, 400 ng): 99% | Reaction Efficiencies HoxA2 (Taq DNA polymerase [3]; MseI digested DNA, 400 ng): 100% | Reaction Efficiencies PGK1 (Taq DNA polymerase [3]; MseI digested DNA, 400 ng): 97% | Average efficiency of the three amplicons with efficiencies for both formulations (Taq DNA polymerase [3]; digested templates): 67.3% | Efficiency compared with the corresponding Tween 20 formulation (Taq DNA polymerase [3]; each amplicon): higher efficiency | Ct values compared with Tween 20-containing amplification mixes (Taq DNA polymerase [3]; higher dilutions of template): lower Ct values at higher dilutions | Average efficiency of the three amplicons with efficiencies for both formulations (Taq DNA polymerase [3]; intact templates): 84.7% | Non-specific, secondary amplification products compared with standard Tween 20 formulations (Taq DNA polymerase [4]): fewer non-specific, secondary amplification products | Detergent supported PCR in screening reactions (Taq DNA polymerase [1]): supported PCR | Ability of stored Taq formulation to support PCR (Taq DNA polymerase [2]): able to support PCR at all the times tested

poly(ethylene glycol) monolaurate
Detergent supported PCR in screening reactions (Taq DNA polymerase [1]): supported PCR

polyoxyethylene(150)dinonylphenyl ether [Igepal® DM-970]
Detergent supported PCR in screening reactions (Taq DNA polymerase [1]): supported PCR
